PubChem BioAssay AID1919001 (Molecular Pharmacology Branch, DTP, NCI, 2023)
pIC50: −log10 of the molar value.

System: 699152-130-R-J1-PDC complex spheroid growth
Assay: Anticancer human tumor 699152-130-R-J1-PDC patient-derived pancreatic carcinoma cell line growth inhibition [AhR]
Conditions: for pIC50: curve of first compound; for viability, T/C: stronger effect = lower value
How it was run: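 Agents were dosed in half-log steps down from roughly clinical Cmax, or from 10 microM where Cmax was unknown, alone and with AhR antagonists. Read-out: percent test/control growth of tumor spheroids containing HUVEC and MSC stromal cells.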

[1] = second compound 0.1 µM, first compound 0.0316 µM
[2] = second compound 0.1 µM, first compound 0.1 µM
[3] = second compound 0.1 µM, first compound 0.316 µM
[4] = second compound 0.1 µM, first compound 1 µM
[5] = second compound 0.1 µM, first compound 3.16 µM
[6] = second compound 0.1 µM, first compound 10 µM
[7] = second compound 0.316 µM, first compound 0.0316 µM
[8] = second compound 0.316 µM, first compound 0.1 µM
[9] = second compound 0.316 µM, first compound 0.316 µM
[10] = second compound 0.316 µM, first compound 1 µM
[11] = second compound 0.316 µM, first compound 3.16 µM
[12] = second compound 0.316 µM, first compound 10 µM
[13] = second compound 1 µM, first compound 0.0316 µM
[14] = second compound 1 µM, first compound 0.1 µM
[15] = second compound 1 µM, first compound 0.316 µM
[16] = second compound 1 µM, first compound 1 µM
[17] = second compound 1 µM, first compound 3.16 µM
[18] = second compound 1 µM, first compound 10 µM
[19] = second compound 3.16 µM, first compound 0.0316 µM
[20] = second compound 3.16 µM, first compound 0.1 µM
[21] = second compound 3.16 µM, first compound 0.316 µM
[22] = second compound 3.16 µM, first compound 1 µM
[23] = second compound 3.16 µM, first compound 3.16 µM
[24] = second compound 3.16 µM, first compound 10 µM
[25] = second compound 10 µM, first compound 0.0316 µM
[26] = second compound 10 µM, first compound 0.1 µM
[27] = second compound 10 µM, first compound 0.316 µM
[28] = second compound 10 µM, first compound 1 µM
[29] = second compound 10 µM, first compound 3.16 µM
[30] = second compound 10 µM, first compound 10 µM
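Further: compound exposure lasted 7 days after spheroids had grown for 3 days.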

For `CCc1c2c(nc3ccc(O)cc13)-c1cc3c(c(=O)n1C2)COC(=O)[C@]3(O)CC` + Cc1cncc(-c2nc(NCCc3c[nH]c4ccccc34)c3ncn(C(C)C)c3n2)c1, the pIC50 (second compound 0.1 µM) was 7.41, the pIC50 (second compound 0.316 µM) was 7.48 and the pIC50 (second compound 1 µM) was 7.16. The pIC50 (second compound 3.16 µM) was 7.91, the pIC50 (second compound 10 µM) was greater than 9.02 and the viability, T/C (second compound 0.1 µM, first compound 0.000949 µM) was 96.7%. For the same compound, the viability, T/C (second compound 0.1 µM, first compound 0.003 µM) was 91.2%, the viability, T/C (second compound 0.1 µM, first compound 0.00949 µM) was 60.3% and the viability, T/C (second compound 0.1 µM, first compound 0.03 µM) was 56.5%. It also gave a viability, T/C (second compound 0.1 µM, first compound 0.0949 µM) of 41%, a viability, T/C (second compound 0.1 µM, first compound 0.3 µM) of 29% and a viability, T/C (second compound 0.316 µM, first compound 0.000949 µM) of 92.4%. For the same compound, the viability, T/C (second compound 0.316 µM, first compound 0.003 µM) was 84.3%, the viability, T/C (second compound 0.316 µM, first compound 0.00949 µM) was 61.3% and the viability, T/C (second compound 0.316 µM, first compound 0.03 µM) was 54.4%. It also gave a viability, T/C (second compound 0.316 µM, first compound 0.0949 µM) of 37.6%, a viability, T/C (second compound 0.316 µM, first compound 0.3 µM) of 28.7% and a viability, T/C (second compound 1 µM, first compound 0.000949 µM) of 102%. It also gave a viability, T/C (second compound 1 µM, first compound 0.003 µM) of 94.2%, a viability, T/C (second compound 1 µM, first compound 0.00949 µM) of 70% and a viability, T/C (second compound 1 µM, first compound 0.03 µM) of 58.8%. The viability, T/C (second compound 1 µM, first compound 0.0949 µM) was 50.9%, the viability, T/C (second compound 1 µM, first compound 0.3 µM) was 30.2% and the viability, T/C (second compound 3.16 µM, first compound 0.000949 µM) was 74.8%. The viability, T/C (second compound 3.16 µM, first compound 0.003 µM) was 66%, the viability, T/C (second compound 3.16 µM, first compound 0.00949 µM) was 49% and the viability, T/C (second compound 3.16 µM, first compound 0.03 µM) was 43.3%. It also gave a viability, T/C (second compound 3.16 µM, first compound 0.0949 µM) of 32.2%, a viability, T/C (second compound 3.16 µM, first compound 0.3 µM) of 23.2% and a viability, T/C (second compound 10 µM, first compound 0.000949 µM) of 10.7%. The viability, T/C (second compound 10 µM, first compound 0.003 µM) was 11.6%, the viability, T/C (second compound 10 µM, first compound 0.00949 µM) was 12.5% and the viability, T/C (second compound 10 µM, first compound 0.03 µM) was 11.7%. The viability, T/C (second compound 10 µM, first compound 0.0949 µM) was 9.62% and the viability, T/C (second compound 10 µM, first compound 0.3 µM) was 11%.

For `CC1(C)CCC(CN2CCN(c3ccc(C(=O)NS(=O)(=O)c4ccc(NCC5CCOCC5)c([N+](=O)[O-])c4)c(Oc4cnc5[nH]ccc5c4)c3)CC2)=C(c2ccc(Cl)cc2)C1` + Cc1cncc(-c2nc(NCCc3c[nH]c4ccccc34)c3ncn(C(C)C)c3n2)c1, the pIC50 (second compound 0.1 µM) was less than 5.00, the pIC50 (second compound 0.316 µM) was less than 5.00 and the pIC50 (second compound 1 µM) was less than 5.00. It also gave a pIC50 (second compound 3.16 µM) of less than 5.00, a pIC50 (second compound 10 µM) greater than 7.50 and a viability, T/C [1] of 101%. The viability, T/C [2] was 111%, the viability, T/C [3] was 124% and the viability, T/C [4] was 106%. For the same compound, the viability, T/C [5] was 109%, the viability, T/C [6] was 97.4% and the viability, T/C [7] was 114%. It also gave a viability, T/C [8] of 110%, a viability, T/C [9] of 105% and a viability, T/C [10] of 107%. For the same compound, the viability, T/C [11] was 114%, the viability, T/C [12] was 121% and the viability, T/C [13] was 127%. For the same compound, the viability, T/C [14] was 134%, the viability, T/C [15] was 127% and the viability, T/C [16] was 117%. For the same compound, the viability, T/C [17] was 120%, the viability, T/C [18] was 128% and the viability, T/C [19] was 121%. It also gave a viability, T/C [20] of 127%, a viability, T/C [21] of 130% and a viability, T/C [22] of 123%. It also gave a viability, T/C [23] of 125%, a viability, T/C [24] of 128% and a viability, T/C [25] of 19.8%. The viability, T/C [26] was 18.4%, the viability, T/C [27] was 23.2% and the viability, T/C [28] was 23.7%. The viability, T/C [29] was 27.9% and the viability, T/C [30] was 22.8%.

In the case of `COc1cccc2c1C(=O)c1c(O)c3c(c(O)c1C2=O)CC(O)(C(=O)CO)CC3OC1CC(N)C(O)C(C)O1` (stereo not given) + CC(CO)NC(=O)c1cc(-c2ccc(Cl)cc2)nn(-c2cnn(C)c2)c1=O, the pIC50 (second compound 0.1 µM) was 6.34, the pIC50 (second compound 0.316 µM) was 6.42 and the pIC50 (second compound 1 µM) was 6.34. For the same compound, the pIC50 (second compound 3.16 µM) was 6.43, the pIC50 (second compound 10 µM) was 6.49 and the viability, T/C [1] was 71.2%. It also gave a viability, T/C [2] of 86.7%, a viability, T/C [3] of 56.8% and a viability, T/C [4] of 29.1%. It also gave a viability, T/C [5] of 1.94%, a viability, T/C [6] of 11.6% and a viability, T/C [7] of 83.2%. For the same compound, the viability, T/C [8] was 74.2%, the viability, T/C [9] was 56% and the viability, T/C [10] was 21.6%. For the same compound, the viability, T/C [11] was 2.1%, the viability, T/C [12] was 11.6% and the viability, T/C [13] was 70.4%. The viability, T/C [14] was 72.7%, the viability, T/C [15] was 64.1% and the viability, T/C [16] was 20.7%. The viability, T/C [17] was 2.66%, the viability, T/C [18] was 12.9% and the viability, T/C [19] was 68.1%. It also gave a viability, T/C [20] of 69.9%, a viability, T/C [21] of 56.2% and a viability, T/C [22] of 9.03%. The viability, T/C [23] was 8.71%, the viability, T/C [24] was 15.1% and the viability, T/C [25] was 73.4%. The viability, T/C [26] was 69.3%, the viability, T/C [27] was 51.1% and the viability, T/C [28] was 2.91%. It also gave a viability, T/C [29] of 5.62% and a viability, T/C [30] of 12.8%.
